# Laboratory results taken from PMC13192270, “RhlR quorum-sensing receptor ligand sensitivity regulates the differential expression of phenazine genes in Pseudomonas aeruginosa” (Journal of Bacteriology, 2026).
# Residue numbers refer to the chain shown, from its start.
# Columns and labels:
# [1] = biological target: T1, RhlR A44M in ΔrhlI strain (Pseudomonas aeruginosa, UniProt P54292, A44M); experiment: ChIP-seq of RhlR-binding sites; assay type: cell-based; conditions: 2 µM C4HSL
# T1 construct: expressed in transfected cells; host or cells: P. aeruginosa UCBPP-PA14 ΔrhlI, mutant allele placed on the chromosome at the native rhlR locus
# T1 sequence (P54292 1-241 A44M): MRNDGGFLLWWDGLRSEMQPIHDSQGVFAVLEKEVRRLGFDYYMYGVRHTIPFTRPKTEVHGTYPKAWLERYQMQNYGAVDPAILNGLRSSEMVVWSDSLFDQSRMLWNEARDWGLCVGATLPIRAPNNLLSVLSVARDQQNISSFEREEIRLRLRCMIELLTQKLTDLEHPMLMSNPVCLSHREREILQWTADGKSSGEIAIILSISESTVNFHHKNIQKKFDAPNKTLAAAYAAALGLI
# Method: (§1) P. aeruginosa strains were grown overnight, back diluted 1:100 in fresh LB media, and grown to an OD600 = 2.0. Crosslinking, lysis, and immunoprecipitation were performed as previously described ([37]).
# [2] = biological target: T2, RhlR T58L in ΔrhlI strain (Pseudomonas aeruginosa, UniProt P54292, T58L); experiment: ChIP-seq of RhlR-binding sites; assay type: cell-based; conditions: 2 µM C4HSL
# T2 construct: expressed in transfected cells; host or cells: P. aeruginosa UCBPP-PA14 ΔrhlI, mutant allele placed on the chromosome at the native rhlR locus
# T2 sequence (P54292 1-241 T58L): T1 sequence (P54292 1-241 A44M) with M44A, T58L
# Text: To determine the molecular basis for lower levels of phz gene expression in a background that expressed a hypersensitive variant of RhlR, we assessed expression of the pqsABCDE operon ([51]). PqsE is required for optimal expression of the phz genes and, thus, pyocyanin production. RhlR was previously characterized as a repressor of the pqsABCDE operon. We hypothesized that a C4HSL hypersensitive variant would repress pqsABCDE expression, which could lead to the observed decrease in phz gene expression. Indeed, pqsA RNA levels were 20% lower in a strain expressing RhlR T58L compared to WT RhlR (Fig. 6A; Table 2). To confirm that the decrease in gene expression led to a decrease in the available PqsE protein that was capable of interacting with RhlR to specifically drive it to the phz promoter, we performed western blot analyses to measure PqsE protein levels in strains expressing RhlR variants (Fig. 7A). […] Thus, we hypothesized that when PqsE levels fall below a certain concentration, PqsE homodimerization cannot occur, thereby preventing PqsE-RhlR complex formation and reducing promoter occupancy. […] We highlight phzA1 and phzM, which share a promoter (Fig. S10A), rhlA (Fig. S10B), and lecB (Fig. S10C) because of the role of the phz and rhlA promoters in regulating pyocyanin and rhamnolipid production (Fig. 5) and because lecB is a well-characterized PqsE-dependent promoter ([37]). As expected, RhlR T58L had lower promoter occupancy than WT RhlR at the phzA1 promoter, likely due to the lower levels of PqsE present (Fig. 7B; Fig. S10A). Conversely, RhlR occupancy at the rhlA promoter was nearly unchanged from WT RhlR (Fig. 7B; Fig. S10B), reflecting the ability of RhlR to bind the promoter primarily through its dependency on C4HSL.
# as §1
smiles,measurement,setting,value
"CCCC(=O)N[C@H]1CCOC1=O [C4HSL, N-butyryl-L-homoserine lactone]","ChIP-seq enrichment at PA14_01490 (rahU) (peak 139,733)",[1],36.29
same,"ChIP-seq enrichment at PA14_06320 (peak 560,072)",[1],207.8
same,"ChIP-seq enrichment at PA14_10360 (peak 895,433)",[1],557.9
same,"ChIP-seq enrichment at PA14_16100*, PA14_16110 (peak 1,372,370)",[1],41.27
same,"ChIP-seq enrichment at PA14_18800 (peak 1,620,628)",[1],459
same,"ChIP-seq enrichment at PA14_18810 operon (peak 1,621,028)",[1],216.7
same,"ChIP-seq enrichment at PA14_20130, PA14_20140 (fpr) (peak 1,735,823)",[1],187.2
same,"ChIP-seq enrichment at PA14_21020 (azeB) operon, PA14_21030 (peak 1,816,906)",[1],"2,385.1"
same,"ChIP-seq enrichment at PA14_22090 (peak 1,921,598)",[1],403.3
same,"ChIP-seq enrichment at PA14_28250*, PA14_28260 (peak 2,444,398)",[1],18.9
same,"ChIP-seq enrichment at PA14_29620, fhp operon (peak 2,568,048)",[1],698.1
same,"ChIP-seq enrichment at PA14_30570, PA14_30580 (vqsR) (peak 2,647,472)",[1],454.9
same,"ChIP-seq enrichment at PA14_30840* (peak 2,677,542)",[1],631.2
same,"ChIP-seq enrichment at PA14_37745 operon (peak 3,364,761)",[1],0
same,"ChIP-seq enrichment at PA14_48140 operon (peak 4,285,523)",[1],89.06
same,"ChIP-seq enrichment at PA14_48530 operon (peak 4,313,855)",[1],870.2
same,"ChIP-seq enrichment at PA14_49310 (peak 4,382,169)",[1],273.4
same,"ChIP-seq enrichment at PA14_49740, PA14_49750 operon (peak 4,425,570)",[1],518.7
same,"ChIP-seq enrichment at PA14_57970*, PA14_57980 (peak 5,159,548)",[1],16.73
same,"ChIP-seq enrichment at PA14_59180* (peak 5,268,881)",[1],320.1
same,"ChIP-seq enrichment at PA_48530* (peak 4,314,560)",[1],476.8
same,"ChIP-seq enrichment at arcD operon (peak 6,093,032)",[1],97.46
same,"ChIP-seq enrichment at hcnA operon, exoY (peak 3,236,436)",[1],998.8
same,"ChIP-seq enrichment at hsiA2 operon, hcpD (peak 3,831,541)",[1],840.8
same,"ChIP-seq enrichment at lasA (peak 3,600,666)",[1],0
same,"ChIP-seq enrichment at lasB (peak 1,387,361)",[1],155.1
same,"ChIP-seq enrichment at lecB, PA14_20620 operon (peak 1,774,336)",[1],"3,659.5"
same,"ChIP-seq enrichment at pa1L (peak 2,721,761)",[1],431.4
same,"ChIP-seq enrichment at peak 5,414,219",[1],86.36
same,"ChIP-seq enrichment at phzA1 operon, phzM (peak 813,529)",[1],"1,47.87"
same,"ChIP-seq enrichment at phzA2 operon (peak 3,561,969)",[1],134.6
same,"ChIP-seq enrichment at phzB1*, phzC1 (peak 812,427)",[1],872.5
same,"ChIP-seq enrichment at phzB2*, phzC2 (peak 3,561,157)",[1],241.2
same,"ChIP-seq enrichment at phzH (peak 64,211)",[1],"1,287.1"
same,"ChIP-seq enrichment at rhlA operon (peak 1,648,391)",[1],636
same,"ChIP-seq enrichment at rhlI (peak 1,651,804)",[1],425
same,"ChIP-seq enrichment at rmlB operon (peak 6,082,366)",[1],428.1
same,"ChIP-seq enrichment at rpsL operon (peak 754,615)",[1],128.1
same,"ChIP-seq enrichment at tnpS, tnpT operon (peak 3,188,223)",[1],255
same,"ChIP-seq enrichment at PA14_01490 (rahU) (peak 139,733)",[2],"1,262.3"
same,"ChIP-seq enrichment at PA14_06320 (peak 560,072)",[2],896.4
same,"ChIP-seq enrichment at PA14_10360 (peak 895,433)",[2],513.5
same,"ChIP-seq enrichment at PA14_16100*, PA14_16110 (peak 1,372,370)",[2],"1,439.9"
same,"ChIP-seq enrichment at PA14_18800 (peak 1,620,628)",[2],405.8
same,"ChIP-seq enrichment at PA14_18810 operon (peak 1,621,028)",[2],87.2
same,"ChIP-seq enrichment at PA14_20130, PA14_20140 (fpr) (peak 1,735,823)",[2],380.5
same,"ChIP-seq enrichment at PA14_21020 (azeB) operon, PA14_21030 (peak 1,816,906)",[2],"3,188.5"
same,"ChIP-seq enrichment at PA14_22090 (peak 1,921,598)",[2],349.8
same,"ChIP-seq enrichment at PA14_28250*, PA14_28260 (peak 2,444,398)",[2],159.5
same,"ChIP-seq enrichment at PA14_29620, fhp operon (peak 2,568,048)",[2],"2,263.3"
same,"ChIP-seq enrichment at PA14_30570, PA14_30580 (vqsR) (peak 2,647,472)",[2],554.8
same,"ChIP-seq enrichment at PA14_30840* (peak 2,677,542)",[2],"4,222.3"
same,"ChIP-seq enrichment at PA14_37745 operon (peak 3,364,761)",[2],433.4
same,"ChIP-seq enrichment at PA14_48140 operon (peak 4,285,523)",[2],340.9
same,"ChIP-seq enrichment at PA14_48530 operon (peak 4,313,855)",[2],867.6
same,"ChIP-seq enrichment at PA14_49310 (peak 4,382,169)",[2],673.4
same,"ChIP-seq enrichment at PA14_49740, PA14_49750 operon (peak 4,425,570)",[2],"2,142.3"
same,"ChIP-seq enrichment at PA14_57970*, PA14_57980 (peak 5,159,548)",[2],228.8
same,"ChIP-seq enrichment at PA14_59180* (peak 5,268,881)",[2],216.4
same,"ChIP-seq enrichment at PA_48530* (peak 4,314,560)",[2],229
same,"ChIP-seq enrichment at arcD operon (peak 6,093,032)",[2],900.8
same,"ChIP-seq enrichment at hcnA operon, exoY (peak 3,236,436)",[2],"1,543.7"
same,"ChIP-seq enrichment at hsiA2 operon, hcpD (peak 3,831,541)",[2],"1,100.7"
same,"ChIP-seq enrichment at lasA (peak 3,600,666)",[2],211.7
same,"ChIP-seq enrichment at lasB (peak 1,387,361)",[2],347.7
same,"ChIP-seq enrichment at lecB, PA14_20620 operon (peak 1,774,336)",[2],"13,604.8"
same,"ChIP-seq enrichment at pa1L (peak 2,721,761)",[2],171.4
same,"ChIP-seq enrichment at peak 5,414,219",[2],697
same,"ChIP-seq enrichment at phzA1 operon, phzM (peak 813,529)",[2],"2,515.8"
same,"ChIP-seq enrichment at phzA2 operon (peak 3,561,969)",[2],562.6
same,"ChIP-seq enrichment at phzB1*, phzC1 (peak 812,427)",[2],968.1
same,"ChIP-seq enrichment at phzB2*, phzC2 (peak 3,561,157)",[2],75.06
same,"ChIP-seq enrichment at phzH (peak 64,211)",[2],800.4
same,"ChIP-seq enrichment at rhlA operon (peak 1,648,391)",[2],"3,584.5"
same,"ChIP-seq enrichment at rhlI (peak 1,651,804)",[2],263.1
same,"ChIP-seq enrichment at rmlB operon (peak 6,082,366)",[2],"2,634"
same,"ChIP-seq enrichment at rpsL operon (peak 754,615)",[2],416.1
same,"ChIP-seq enrichment at tnpS, tnpT operon (peak 3,188,223)",[2],237.1
